Results taken from US10441587B2, “Treatment of lung cancer with inhibitors of glutaminase” (Calithera Biosciences, Inc., priority 2015, dated 2019).

Legend:
[1] = tested on: non-small cell lung cancer cell lines exhibiting a KRAS mutation; experiment: Sensitivity of non-small cell lung cancer cell lines by mutation status; type: cell-based; settings: KRAS-mutant vs wild-type non-small cell lung cancer cell lines; arrested growth and/or cell death
[2] = tested on: H661 (CALA); experiment: Sensitivity of NSCLC cell line to CB-839; type: cell-based; settings: KRAS wt, AMP, EGFR wt, n 3
[3] = tested on: H358 (CALA); experiment: Sensitivity of NSCLC cell line to CB-839; type: cell-based; settings: KRAS G12C, no amp, EGFR wt, n 4
[4] = tested on: H1299 (CALA); experiment: Sensitivity of NSCLC cell line to CB-839; type: cell-based; settings: KRAS wt, no amp, EGFR wt, n 3
[5] = tested on: H1563 (CALA); experiment: Sensitivity of NSCLC cell line to CB-839; type: cell-based; settings: KRAS wt, no amp, EGFR wt, n 4
[6] = tested on: H2122 (CALA); experiment: Sensitivity of NSCLC cell line to CB-839; type: cell-based; settings: KRAS G12C, no amp, EGFR wt, n 5
[7] = tested on: ChaGo-K1 (CALA); experiment: Sensitivity of NSCLC cell line to CB-839; type: cell-based; settings: KRAS wt, no amp, EGFR wt, n 3
[8] = tested on: H2073 (CALA); experiment: Sensitivity of NSCLC cell line to CB-839; type: cell-based; settings: KRAS wt, no amp, EGFR wt, n 3
[9] = tested on: H2030 (CALA); experiment: Sensitivity of NSCLC cell line to CB-839; type: cell-based; settings: KRAS G12C, no amp, EGFR wt, n 3
[10] = tested on: H1975 (CALA); experiment: Sensitivity of NSCLC cell line to CB-839; type: cell-based; settings: KRAS wt, no amp, EGFR L858R/T790M, n 4
[11] = tested on: H2122 lung adenocarcinoma xenograft; experiment: Lung adenocarcinoma xenograft efficacy study; type: in vivo; settings: H2122 xenograft in scid/beige mice; 200 mg/kg orally BID for 23 days; vs vehicle
Procedure: Female scid/beige mice (n═20) age 6-8 weeks were implanted subcutaneously with 1×10^7 H2122 lung adenocarcinoma cells per mouse suspended in PBS. Mice were randomized into the following two groups of n=10 mice/group: 1) Vehicle control (25% Hydroxypropyl-β-cyclodextrin) and 2) Compound 670 dosed orally at 200 mg/kg (formulated at 20 mg/mL in 25% HP-β-CD). For both groups, dosing was initiated 24 hours post-implant and continued orally BID for 23 days. Tumors were measured with calipers three times per week and tumor volume calculated using the formula tumor volume (mm^3)=(a×b^2/2) where ‘b’ is the smallest diameter and ‘a’ is the largest perpendicular diameter. **P-value<0.01 (Two-sided T-test).

[12] = tested on: H1568 (CALA); experiment: Sensitivity of NSCLC cell line to CB-839; type: cell-based; settings: KRAS wt, no amp, EGFR wt, n 4
[13] = tested on: H1650 (CALA); experiment: Sensitivity of NSCLC cell line to CB-839; type: cell-based; settings: KRAS wt, no amp, EGFR exon 19 deletion, n 1
[14] = tested on: H23 (CALA); experiment: Sensitivity of NSCLC cell line to CB-839; type: cell-based; settings: KRAS G12C, AMP, EGFR wt, n 4
[15] = tested on: H2347 (CALA); experiment: Sensitivity of NSCLC cell line to CB-839; type: cell-based; settings: KRAS L19F, no amp, EGFR wt, n 3
[16] = tested on: H441 (CALA); experiment: Sensitivity of NSCLC cell line to CB-839; type: cell-based; settings: KRAS G13V, AMP, EGFR wt, n 3
[17] = tested on: H647 (CALA); experiment: Sensitivity of NSCLC cell line to CB-839; type: cell-based; settings: KRAS G13D, no amp, EGFR wt, n 3
[18] = tested on: H1693 (CALA); experiment: Sensitivity of NSCLC cell line to CB-839; type: cell-based; settings: KRAS wt, no amp, EGFR wt, n 3
[19] = tested on: H1437 (CALA); experiment: Sensitivity of NSCLC cell line to CB-839; type: cell-based; settings: KRAS wt, no amp, EGFR wt, n 3
[20] = tested on: H2023 (CALA); experiment: Sensitivity of NSCLC cell line to CB-839; type: cell-based; settings: KRAS wt, no amp, EGFR wt, n 3
[21] = tested on: HCC827 (CALA); experiment: Sensitivity of NSCLC cell line to CB-839; type: cell-based; settings: KRAS wt, no amp, EGFR exon 19 deletion, n 3
[22] = tested on: H226 (CALA); experiment: Sensitivity of NSCLC cell line to CB-839; type: cell-based; settings: KRAS wt, no amp, EGFR wt, n 4
[23] = tested on: H2085 (CALA); experiment: Sensitivity of NSCLC cell line to CB-839; type: cell-based; settings: KRAS wt, no amp, EGFR no data, n 3
[24] = tested on: H838 (CALA); experiment: Sensitivity of NSCLC cell line to CB-839; type: cell-based; settings: KRAS wt, AMP, EGFR wt, n 3
[25] = tested on: A549 (CALA); experiment: Sensitivity of NSCLC cell line to CB-839; type: cell-based; settings: KRAS G12S, no amp, EGFR wt, n 2
[26] = tested on: H1703 (CALA); experiment: Sensitivity of NSCLC cell line to CB-839; type: cell-based; settings: KRAS wt, AMP, EGFR wt, n 4

Compound: O=C(Cc1cccc(OC(F)(F)F)c1)Nc1ccc(CCCCc2nnc(NC(=O)Cc3ccccn3)s2)nn1 [compound 670]
- sensitivity to treatment versus wild-type cell lines [1]: more sensitive
- Sensitivity to CB-839 average [2]: 1.33
- Sensitivity to CB-839 average [3]: −34
- Sensitivity to CB-839 average [4]: 68.67
- Sensitivity to CB-839 average [5]: 61.5
- Sensitivity to CB-839 average [6]: −28.637
- Sensitivity to CB-839 average [7]: 86
- Sensitivity to CB-839 average [8]: 57.67
- Sensitivity to CB-839 average [9]: −30
- Sensitivity to CB-839 average [10]: 22.225
- tumor size [11]: reduced tumor size
- Sensitivity to CB-839 average [12]: −38
- Sensitivity to CB-839 average [13]: 19
- Sensitivity to CB-839 average [14]: −13
- Sensitivity to CB-839 average [15]: −14
- Sensitivity to CB-839 average [16]: −2.67
- Sensitivity to CB-839 average [17]: 18.267
- Sensitivity to CB-839 average [18]: 82.67
- Sensitivity to CB-839 average [19]: 8.33
- Sensitivity to CB-839 average [20]: −47
- Sensitivity to CB-839 average [21]: −9
- Sensitivity to CB-839 average [22]: 38.75
- Sensitivity to CB-839 average [23]: 80.667
- Sensitivity to CB-839 average [24]: 82
- Sensitivity to CB-839 average [25]: −68.565
- Sensitivity to CB-839 average [26]: −10
